The target of one assay is T1, hRANK (Homo sapiens, UniProt Q9Y6Q6).
T1 construct: For NMR experiments with soluble RANK receptor-Fc (R&D Systems); purchased R&D Systems
T1 sequence (Q9Y6Q6 30-212 limits assumed): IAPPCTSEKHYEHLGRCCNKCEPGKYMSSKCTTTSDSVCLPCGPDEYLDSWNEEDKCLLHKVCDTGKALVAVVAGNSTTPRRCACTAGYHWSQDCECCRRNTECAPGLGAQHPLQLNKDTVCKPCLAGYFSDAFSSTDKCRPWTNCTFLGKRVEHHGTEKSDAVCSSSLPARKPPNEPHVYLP
Description: Surface plasmon resonance (Biacore) binding to immobilized RANK-Fc. The note with it: SPR, 1:1 Langmuir model. Here is the method: Biosensor experiments were carried out on a BIAcore 3000 instrument (BIAcore) as published previously (Baud′Huin et al. 2009). Recombinant purified RANKL (2 μg/mL in 5 mM maleate, pH 5.75) or RANK-Fc carrier-free (5 μg/mL in sodium acetate buffer, pH 5.0) were covalently immobilized to the dextran matrix of a CM5 sensor chip (BIAcore) at a flow rate of 5 μL/min. Immobilization levels ranging from 400 to 3000 Response Units (RU) for RANKL or 5000 RU for RANK were obtained. Binding assays were performed at 25° C. in 10 mM Hepes buffer, pH 7.4. The association phase was 180 seconds followed by a dissociation phase in the same buffer. Polypeptides binding studies to RANK or RANKL were determined using single cycle kinetics, starting with 100 μM of the polypeptide of interest followed by 2-fold serial dilutions (ranging from 100 to 0.78 μM). The sensorgrams were fitted to calculate the equilibrium-dissociation constants using the Langmuir 1:1 model with BiaEval 4.1 software (BIAcore). RANK-Fc CF, RANKL and OPG carrier-free were obtained from R&D Systems (Minneapolis, Minn., USA).
In general terms: Surface plasmon resonance follows binding to a sensor surface in real time, without labels.

Assay [1] relates to ovariectomized C57BL/6 mice. Description: Ovariectomy-induced bone loss in mice, micro-CT of tibiae and L4 vertebrae. Type of assay: in vivo, mouse. The following applies: 35 days. From the text: Eight-week-old ovariectomized (OVX) female C57BL6 and non-ovariectomized control mice were purchased from Janvier (Le Genest Saint Ilsle, France). Mice were housed under pathogen-free conditions at the Experimental Therapy Unit (Faculty of Medicine, University of Nantes, France), and animal care and experimental protocols were approved by the French Ministry of Research and were done in accordance with the institutional guidelines of the French Ethical Committee and under the supervision of authorized investigators. After recovery from OVX surgery for 7 days and acclimation, the mice were randomly divided into treatment groups receiving daily subcutaneous injections of a peptide and a control group receiving daily injections of the vehicle (PBS) only. Non-ovariectomized or sham-operated mice were included in the studies as healthy controls. Three experimental protocols were established. Protocol 1: Ovariectomized mice received daily s.c. injections of 10 mg/kg body weight Pep8 (Pep8, n=8) or vehicle only (OVX, n=8). Non-ovariectomized (NOV, n=8) mice served as normal controls. Protocol 2: Ovariectomized mice were randomly divided into four groups (n=8), receiving daily treatments with pegylated Pep8 (Pep8-NPEG5) at 10 mg/kg or 2.5 mg/kg, or unpegylated Pep8 at a dose of 10 mg/kg/d, or the vehicle only. Sham-operated mice (n=5) served as healthy controls. Protocol 3: Ovariectomized mice receiving daily treatments with pegylated Pep8 (Pep8-NPEG8) at 10 mg/kg or 2.5 mg/kg, as described before, or unpegylated Pep8 at a lower dose of 2.5 mg/kg/d, or the vehicle only. Sham-operated mice (n=8) served as healthy controls.
During the experimental period, the body weight of the mice was monitored. […] After treatment for five weeks, mice were anesthetized with isoflurane (2%, 1 L/min) and sacrificed by cervical dislocation. Lumbar vertebrae and tibiae were collected for micro-CT analysis and stored at 4° C. in 4% paraformaldehyde until further analysis. Additionally, internal organs (heart, liver, lungs, kidneys, spleen, intestines and thymus) of some mice (n=3 per group) were harvested and stored for toxicity screening.
Analysis of architectural variables of tibiae and vertebrae of mice was performed using the high-resolution X-ray micro-CT system for small animal imaging SkyScan-1072 (SkyScan, Belgium). After scanning, the image data were transferred to a workstation and the proximal tibiae and the fourth lumbar vertebrae (L4) were rendered for 3-D display and calculation of the structural indices (Parfitt et al. 1987) using the SkyScan analysis system (CT-analyser, CT-volume, SkyScan). For trabecular bone parameters in tibiae, transverse CT slices were obtained in the region of interest in the axial direction from the trabecular bone ca. 0.1 mm below the growth plate to the mid-femur. Contours were defined and drawn close to the cortical bone. The trabecular bone was then removed and analyzed separately. Fifty slices (1 mm) at approximately […] distal to the growth plate of the proximal ends of the tibiae were used for analysis. […] The threshold level for the measurements was set at 55 for the analyses. The analysis of the specimens involved the following bone measurements: bone volume fraction (BV/TV, %), trabecular number (TbN), trabecular thickness (TbTh) and trabecular spacing (TbSp).

pKd: −log10 of the molar value. Ends that are not written are not given here. (PEG)5 = linear (PEG)5 polyethylene glycol chain at N-terminal amino acid

By pKd is commonly meant the negative decadic logarithm of the Kd, by convention in mol/L. Broadly, the kon is the second-order rate constant of association. The term koff denotes the first-order rate constant of dissociation. Regarding ELASYIIITQLG [Pep1, ELASYIIITQLG], at hRANK (25° C., pH 7.4, read-out: binding affinity (Kd) to hRANK), the pKd was 4.69. The kon at hRANK (read-out: association rate constant (kon)) was determined as 13.5 M⁻¹ s⁻¹. Moreover, the koff at hRANK (read-out: dissociation rate constant (koff)) was 0.000278 s⁻¹.
With “Pep8-NPEG5: Pep8 carrying a linear (PEG)5 polyethylene glycol chain at the N-terminal amino acid ({(PEG)5}-NVLKLCSGE)”, the “protection against OVX-induced trabecular bone loss (μCT, tibiae)” value in assay [1] (2.5 mg/kg/d s.c.) was “almost as effective”. Moreover, in assay [1] (2.5 mg/kg/d, vs vehicle), the “trabecular BV/TV and TbN, tibiae” value was “significantly increasing”. Further, the “protection against OVX-induced trabecular bone loss (μCT)” value in assay [1] (10 mg/kg/d s.c.) is given as “attenuated bone loss in OVX mice to the same extent as treatment with the unpegylated peptide”.

(Values after patent US9403873B2, “Peptides targeting receptor activator of nuclear factor-κB (RANK) and their applications” (UNIVERSITE DE NANTES, priority 2011, dated 2016).)
